The text below walks through data of patent publication US20260069693A1, “UROLITHINS AND T-CELL MEDIATED IMMUNE RESPONSE” (priority 2022, published 2026).

The test system of the experiment is Splenic murine T cells. Briefly: aCD3/aCD28 stimulation of murine T cells in presence of UA, flow cytometry. In kind it is cell-based. The settings on record: UA 50 μM + ICG001 10 μM, 48 h. As for the experimental part:
Mitochondrial remodelling has been previously associated with alterations in T cell fate (Buck et al., 2016; Yu et al., 2020b). Given the observed dependency of the UA effect on CD8^+ T cells, the inventors wondered whether UA may also directly affect T cell fate commitment. Purified T cells from FVB mice were stimulated with aCD3/aCD28 beads to induce T cell differentiation into effector T cell subsets in the presence or absence of UA for up to 72 hours (FIG. 2A). […] Previously, a rare naïve-like subset of T cells with enhanced stemness capabilities, termed T memory stem cells (TSCM) has been identified (Gattinoni et al., 2009). TSCM are marked by extreme longevity, their ability to self-renew, and potential for immune reconstitution (Gattinoni et al., 2017) which translates into potent anti-tumor immunity. Phenotypically, TSCM represent a subset of minimally differentiated T cells, which share a CD44^loCD62L^hi phenotype with naïve T cells, but are phenotypically distinct by expressing high levels of Sca1 (Gattinoni et al., 2009). […] This was associated with reduced cyclin D1 expression (not shown), in line with previous observations that link TSCM reprogramming to halted proliferation (Gattinoni et al., 2009; Verma et al., 2021).
Splenic murine T cells were isolated from mice aged 6-20 weeks by negative selection with EasySep mouse T cell isolation kit (Stem cell) according to the manufacturer's instructions. To monitor T cell proliferation, purified T cells were loaded with CellTrace Violet (C34557 ThermoFisher Scientific). T cell activation was initiated using αCD3/CD28 activation beads (11456D; ThermoFisher Scientific) at a ratio of 25 μl dynabeads per 0.5×10^6 T-cells. Cells were activated with 25-50 μM Urolithin A (Tocris) or DMSO in T cell activation Medium (RPMI (ThermoFisher Scientific) 10% FBS (South America origin), 10 mM Hepes (Sigma), 1× Non-Essential Amino Acid, 1 mM Sodium Pyruvate, 50 μM B-Mercaptoethanol, 100 U/ml penicillin, 100 μg/ml streptomycin and 2 mM Glutamax (ThermoFisher Scientific) for the indicated durations. In selected experiments, cells were stimulated in the presence of inhibitors, namely TCF1i (ICG-001; SelleckChem; 10 μM) and PGC-1αi (SR-18292, Sigma-Aldrich; 10 μm,). For subsequent analysis, activating beads were magnetically removed prior antibody staining. For human T cells, peripheral blood mononuclear cells were purified with a Ficoll-Paque (GE healthcare) gradient. T cells were enriched with EasySep Human T Cell Isolation Kit (StemCell) and activated with dynabead Human T-Activator CD3/CD28 for T Cell Expansion and Activation Kit (11131D; ThermoFisher Scientific), similar to murine T cell stimulation. […]
For flow cytometric analysis of mitochondria and lysosomes 500 μl of Mitotracker Red (200 nM; ThermoFisher) or Lysotracker Red DND-99 (75 nM; ThermoFisher) were applied followed by surface staining. To study changes in mitochondrial membrane potential, Mitoprobe TMRM kit (ThermoFisher) was used according to the manufacturer's instructions. Cell proliferation was assessed by CellTrace Violet (Invitrogen, C34557) at a concentration of 5 μM according to manufacturer's instructions. For human samples, cells were stained as described above with Fixable Viability Dye-eF780, αCD95-BV421 (DX2; 562616), αCD62L-PE (DREG-56; 555544), αCCR7-AF700 (150503; 561143), αCD45RO-APC (UCHL; 559865), αCD45RA-FITC (HI100; 555488), αCD8-PE-CF594 (RPA-T8; 562282) and αCD4-BV786 (OKT4; 566806) from BD.
In general terms: Flow cytometry measures light scatter and fluorescence of single cells or particles in a stream.

Structures are written as SMILES.

For `O=C1[C@H](Cc2ccc(O)cc2)N2C(=O)CCN(C(=O)NCc3ccccc3)[C@H]2CN1Cc1cccc2ccccc12` [ICG001, reference compound], the “UA-induced TSCM formation in vitro under TCF-1 block” value was “abrogated”.
